PubChem BioAssay (NCI)
Values joined by “and” are separate entries in the source; they are usually repeats but may differ in a detail not shown here. Equal entries are not always repeated.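 Values below derive from 48-hour exposures of cells grown in 96-well plates, with endpoints linearly interpolated between the two concentrations bracketing the appropriate inhibition level. GI50: concentration for 50% inhibition of growth. At the TGI there is no net growth.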

Legend:
Assay in all cases: growth of human tumour cells (NCI), 48 h
UO-31 renal = tested on: UO-31 renal
OVCAR-5 ovarian = tested on: OVCAR-5 ovarian
SK-OV-3 ovarian = tested on: SK-OV-3 ovarian
ACHN renal = tested on: ACHN renal
MOLT-4 leukemia = tested on: MOLT-4 leukemia
SNB-19 CNS = tested on: SNB-19 CNS
SK-MEL-5 melanoma = tested on: SK-MEL-5 melanoma
IGROV1 ovarian = tested on: IGROV1 ovarian
SNB-75 CNS = tested on: SNB-75 CNS
DU-145 prostate = tested on: DU-145 prostate

| SMILES | TGI (UO-31 renal) [µM] | TGI (OVCAR-5 ovarian) [µM] | TGI (SK-OV-3 ovarian) [µM] | TGI (ACHN renal) [µM] | TGI (MOLT-4 leukemia) [µM] | TGI (SNB-19 CNS) [µM] | TGI (SK-MEL-5 melanoma) [µM] | TGI (IGROV1 ovarian) [µM] | TGI (SNB-75 CNS) [µM] | TGI (DU-145 prostate) [µM] | GI50 (UO-31 renal) [µM] | GI50 (OVCAR-5 ovarian) [µM] | GI50 (SK-OV-3 ovarian) | GI50 (DU-145 prostate) [µM] | GI50 (MOLT-4 leukemia) [µM] | GI50 (SNB-19 CNS) [µM] | GI50 (SK-MEL-5 melanoma) [µM] | GI50 (IGROV1 ovarian) [µM] | GI50 (SNB-75 CNS) [µM] | GI50 (ACHN renal) [µM] |
| --- | --- | --- | --- | --- | --- | --- | --- | --- | --- | --- | --- | --- | --- | --- | --- | --- | --- | --- | --- | --- |
| O=C(O)COc1ccc(C(=O)/C(SS/C(C(=O)c2ccc(OCC(=O)O)c(Cl)c2Cl)=C2\C=C(c3ccc(Cl)cc3)SS2)=C2/C=C(c3ccc(Cl)cc3)SS2)c(Cl)c1Cl | 16.9 | > 100 | > 100 | 25.4 | 12.6 | > 100 | 48.1 | 76.2 | 31 | – | – | – | – | – | – | – | – | – | – | – |
| C(=N\Nc1ccccc1)/c1nc2ccccc2nc1/C=N/Nc1ccccc1 | > 84.6 | 84.9 | 38.6 | 30.6 | 79.8 | 35.4 | 35.4 | 21.5 | 31.4 | – | – | – | – | – | – | – | – | – | – | – |
| NC(N)=NC(N)=Nc1cnccn1 | > 100 | – | > 100 | > 100 | > 100 | > 100 | > 100 | > 100 | > 100 | > 100 | – | – | – | – | – | – | – | – | – | – |
| COc1cc(O)c2c(c1)O[C@@H]1OCC[C@H]21 | > 100 | > 100 | > 100 | > 100 | > 100 | > 100 | > 100 | > 100 | > 100 | – | – | – | – | – | – | – | – | – | – | – |
| COc1ccc(Cc2c(=O)[nH]nc3ccccc23)cc1 | > 100 | > 100 | > 100 | > 100 | > 100 | > 100 | > 100 | > 100 | > 100 | – | – | – | – | – | – | – | – | – | – | – |
| COc1ccc2c(c1)oc(=O)c1cc(OC)ccc12 | > 100 | > 100 | > 100 | – | > 100 | > 100 | > 100 | > 100 | > 100 | > 100 | 32.9 | > 100 | > 100 µM | > 100 | > 100 | > 100 | 65.2 | > 100 | > 100 | – |
| CC[C@@]1(O)C(=O)OCc2c1cc1n(c2=O)Cc2cc3cccc([N+](=O)[O-])c3nc2-1 | 6.91 | 28.4 | 17.1 | 3.01 | – | 31.4 | 2.74 | 14.9 | 7.85 | – | 1.17 | 1.55 | 0.501 µM | – | – | 0.877 | 1.18 | 1.96 | 0.879 | 0.322 |
| O=c1c2ccccc2nc(/C=C(\O)c2ccncc2)n1-c1ccc(Cl)cc1 | > 100 | > 100 | > 100 | > 100 | > 100 | > 100 | > 100 | – | 61.7 | – | – | – | – | – | – | – | – | – | – | – |
| N#Cc1c(N)n2c(nc1=Nc1ccc(Cl)cc1)sc1cc(Cl)ccc12 | – | – | > 100 | > 100 | – | > 100 | – | > 100 | > 100 | > 100 | – | – | 7.14 µM and 5.3 µM | > 100 | 4.42 | > 100 | 8 | > 100 | 5.07 | 9 |
| O=C(NCc1cccnc1)C1COc2cc(-c3cc(=O)c4ccccc4o3)ccc2O1 (configuration not stated) | > 100 | > 100 | > 100 | > 72.9 | > 100 | > 67.2 | > 100 | > 100 | 28.8 | – | – | – | – | – | – | – | – | – | – | – |
| C=C1C(=O)O[C@H]2[C@H]1CC/C(C=Nc1c(N)cc(C(F)(F)F)cc1C(F)(F)F)=C\CC[C@@]1(C)O[C@@H]21 | 2.38 | 4.59 | 11.5 | 2.68 | > 100 | 4.98 | 2.67 | – | 15.4 | 3.09 | 1.07 | 1.87 | 3.26 µM | 1.63 | 0.517 | 1.93 | 1.35 | – | 1.78 | 1.26 |
| Nc1nc(Cl)cc(NCC(O)CO)n1 (configuration not stated) | > 100 | > 100 | > 100 | – | > 100 | > 100 | > 100 | > 100 | > 100 | – | – | – | – | – | – | – | – | – | – | – |
| Cc1nn2c(nc1=O)sc1ccc3ccccc3c12 | > 100 | > 100 | > 100 | > 100 | > 100 | > 100 | > 100 | > 100 | > 100 | – | – | – | – | – | – | – | – | – | – | – |
| O=[N+]([O-])c1cc([N+](=O)[O-])c(/C=C/c2ccc(Cl)c(Cl)c2)cc1/C=C/c1ccc(Cl)c(Cl)c1 | 36.1 | > 100 | > 100 | 81.9 | 62.4 | 66.5 | 35.7 | 66.8 | > 100 | – | – | – | – | – | – | – | – | – | – | – |
| CCCCC(C(=O)CCC(=O)Nc1ccc(Cl)c(Cl)c1)C(=O)C(C)C (configuration not stated) | > 100 | 88.8 | > 100 | > 100 | > 100 | > 100 | > 100 | > 100 | 75 | – | – | – | – | – | – | – | – | – | – | – |
| COc1ccc(Cn2cc3c(c2-c2ccccc2)CCc2cnoc2-3)cc1OC | > 100 | > 100 | > 100 | > 100 | > 100 | > 100 | 10.4 | > 100 | 5.26 | – | 2.24 | 6.2 | 1.48 µM | – | 1.05 | 2.79 | 0.49 | 1.59 | 0.669 | 2.83 |
| CC1(Br)CC2OC3(Br)C=CC(C)(O)C2(CC1=O)C3(C)C (configuration not stated) | > 100 | > 100 | > 100 | > 100 | > 100 | > 100 | > 100 | > 100 | > 100 | – | – | – | – | – | – | – | – | – | – | – |
| Nc1nc(N)c(-c2ccccc2)c(C(=O)Nc2ccccc2)n1 | > 100 | > 100 | > 100 | > 100 | > 100 | > 100 | > 100 | > 100 | > 100 | – | – | – | – | – | – | – | – | – | – | – |
| N#CCCCCCOCCOCCOCCOCCOCCCCCC#N | > 100 | > 100 | > 100 | > 100 | > 100 | > 100 | > 100 | > 100 | > 100 | – | – | – | – | – | – | – | – | – | – | – |
| CCC(O)C1Cc2c(C)cc3c(c2O1)C(=O)c1ccccc1C3=O (configuration not stated) | 61.2 | > 100 | 89.4 | > 100 | > 100 | > 100 | > 100 | > 100 | > 100 | – | – | – | – | – | – | – | – | – | – | – |
